Assay: xn = mol fraction of the nth substance listed
Conditions: for electrical conductivity: 101 kPa, frequency 2 MHz; for viscosity: 100 kPa

O=S(=O)([O-])C(F)(F)F.[Li+] + O=S(=O)([N-]S(=O)(=O)C(F)(F)F)C(F)(F)F.[Li+] + O
Conditions | electrical conductivity, 318.1 K [S/m] | electrical conductivity, 323 K [S/m] | electrical conductivity, 328.1 K [S/m] | electrical conductivity, 333 K [S/m] | viscosity, 318.15 K [mPa·s] | viscosity, 328.15 K [mPa·s]
x1 = 0.04029, x2 = 0.1114 | – | – | – | – | 4.4 | 3.5
x1 = 0.07222, x2 = 0.1893 | – | – | – | – | 15.2 | 11.5
x1 = 0.09226, x2 = 0.2336 | – | – | – | – | 31.9 | 22.9
x1 = 0.1024, x2 = 0.2553 | – | – | – | – | 43.4 | 30.9
x1 = 0.1122, x2 = 0 | – | – | – | – | 2.27 | 1.85
x1 = 0.1122, x2 = 0.2745 | – | – | – | – | 63 | 43.6
x1 = 0.1783, x2 = 0 | – | – | – | – | 5.3 | 4.2
x1 = 0.2388, x2 = 0 | – | – | – | – | 11.1 | 8.6
x1 = 0.2541, x2 = 0 | – | – | – | – | 15.9 | 12.2
x1 = 0.2743, x2 = 0 | – | – | – | – | 23.9 | 18.1
x2 = 0.001799, x1 = 0.0005943 | 1.16 | 1.26 | 1.37 | 1.47 | – | –
x2 = 0.005377, x1 = 0.001799 | 2.87 | 3.132 | 3.4 | 3.66 | – | –
x2 = 0.00893, x1 = 0.003054 | 4.22 | 4.612 | 5.004 | 5.39 | – | –
x2 = 0.01246, x1 = 0.004127 | 5.324 | 5.82 | 6.316 | 6.804 | – | –
x2 = 0.01596, x1 = 0.005377 | 6.231 | 6.813 | 7.39 | 7.97 | – | –
x2 = 0.01944, x1 = 0.006623 | 6.98 | 7.629 | 8.28 | 8.919 | – | –
x2 = 0.05129, x1 = 0.0177 | 9.39 | 10.26 | 11.13 | 12 | – | –
x2 = 0.08265, x1 = 0.02921 | 8.25 | 9.028 | 9.803 | 10.6 | – | –
x2 = 0.112, x1 = 0.04029 | 6.46 | 7.08 | 7.716 | 8.339 | – | –
x2 = 0.1395, x1 = 0.05129 | 4.845 | 5.343 | 5.846 | 6.348 | – | –
x2 = 0.1654, x1 = 0.06203 | 3.58 | 3.97 | 4.37 | 4.78 | – | –
x2 = 0.1898, x1 = 0.07238 | 2.631 | 2.943 | 3.27 | 3.59 | – | –
x2 = 0.2128, x1 = 0.08265 | 1.932 | 2.18 | 2.439 | 2.706 | – | –
x2 = 0.2345, x1 = 0.0927 | 1.418 | 1.616 | 1.824 | 2.041 | – | –
x2 = 0.2551, x1 = 0.1024 | 1.04 | 1.2 | 1.36 | – | – | –
x2 = 0.2745, x1 = 0.112 | 0.76 | 0.884 | 1.017 | – | – | –

From the CheMixHub ionic liquid set
